ChEMBL document CHEMBL1135897, “Design and synthesis of a novel L-dopa-entacapone codrug” (J Med Chem, 2002)

Tests used:
[1] = Half-life period for the hydrolysis to entacopone and […] was determined in a liver homogenate at pH 7.4.; assay type: ADME, tissue-based
[2] = The half-life period, to be stable in the stomach and liver at pH 5.0, was determined; assay type: ADME, tissue-based

Which half-life [1] does the source give for `CCN(CC)C(=O)/C(C#N)=C/c1cc(OC(=O)N[C@@H](Cc2ccc(O)c(O)c2)C(=O)OC)c(O)c([N+](=O)[O-])c1` here?
The half-life was 7 min.

And the half-life [2]?
Its half-life is 66 min.
